Laboratory results as given in PMC10099595, “Multimodal 4-arylchromene derivatives with microtubule-destabilizing, anti-angiogenic, and MYB-inhibitory activities” (Cancer Drug Resistance, 2023).
Read-outs that look alike come from different tables or passages of the source.

Legend:
[1] = tested on: MCF-7 breast carcinoma cells; experiment: MTT antiproliferative assay, MCF-7; format: cell-based; conditions: Homo sapiens, MCF7, 72 h
Text: (§1) The following cell lines were used: 518A2 melanoma (Department of Radiotherapy, Medical University of Vienna, Austria)[15], HeLa cervix carcinoma, KBV1^Vbl (ACC-149 cervix carcinoma, MCF7 [ACC-115]) breast carcinoma, U-87 glioblastoma, HT-29 (ACC-299), HCT-116 (ACC-581) and HCT-116p53-/- colon carcinoma, EA.hy926 (ATCC® CRL-2922^TM) endothelial hybrid cells, and HDFa (ATCC® PCS-201-012^TM) adult human dermal fibroblasts. […] Only mycoplasma-free cultures were used.

518A2 melanoma cells [2] = experiment: MTT antiproliferative assay, 518A2; format: cell-based; conditions: Homo sapiens, 72 h
Text: as §1

MYB = molecular target: T1, MYB (Homo sapiens, UniProt P10242, K503R/K527R); experiment: Luciferase-dependent MYB activity assay (HEK-MYB-Luc reporter cells); format: cell-based; conditions: HEK-293 reporter cells, 16 h; read-out: IC50 inhibition of MYB activity
T1 construct: expressed in transfected cells; host or cells: HEK-293 (HEK-MYB-Luc reporter cell line)
Experimental: Compounds were tested using the HEK-MYB-Luc reporter cell line, which allows a doxycycline-dependent induction of MYB expression and harbors an MYB-dependent luciferase reporter plasmid, as previously described. After 16 h of substance treatment (0.0001-3 µM), luciferase activities were analyzed as described.

[3] = tested on: HCT-116 p53-/- colon carcinoma cells; experiment: MTT antiproliferative assay, HCT-116 p53-/-; format: cell-based; conditions: Homo sapiens, 72 h
Text: as §1

[4] = tested on: tested cancer and hybrid cell lines; experiment: MTT assay, average over all tested cancer and hybrid cell lines
Experimental: An 3-(4, 5-dimethylthiazol-2-yl)-2, 5-diphenyl tetrazolium bromid (MTT) assay was used for antiproliferative studies. Cancer cells (5 × 10^4 cells/mL, 100 μL/well) were placed in 96-well plates (10 × 10^4 cells/mL for HDFA and U87 cells), and the cells were incubated for 24 h at 5% CO2 and 95% humidity. Then, cells were treated with test compounds (at various concentrations) or solely with DMSO as a negative control for 72 h. Then, 12.5 μL of a 0.5% MTT solution in phosphate-buffered saline (PBS) was added to the cells, followed by incubation for 2 h at 37 °C. After centrifugation of the plates (300 × g, 5 min, 4 °C), the medium was discarded, and 25 μL of DMSO containing 10% SDS and 0.6% acetic acid was added, followed by incubation at 37 °C for at least 1 h. Formazan absorbance at λ = 570 nm was measured using a Tecan infinite F200 microplate reader and corrected for the background (λ = 630 nm). The 50% inhibitory concentration (IC50) values were calculated from dose-response curves (means ± SD, four independent experiments) compared to DMSO-treated control cells, which were set to 100%. GraphPad Prism 9 was used for curve-fitting.
The selectivity index (SI) was calculated as a measure of selectivity toward cancer cells compared to non-malignant cells.

U-87 glioblastoma cells = experiment: MTT antiproliferative assay, U87; format: cell-based; conditions: Homo sapiens, 72 h
Text: as §1

[5] = tested on: HeLa cervix carcinoma cells; experiment: MTT antiproliferative assay, HeLa; format: cell-based; conditions: Homo sapiens, 72 h
Text: as §1

[6] = tested on: HCT-116 colon carcinoma cells; experiment: MTT antiproliferative assay, HCT-116; format: cell-based; conditions: Homo sapiens, 72 h
Text: as §1

[7] = tested on: KB-V1^Vbl cervix carcinoma cells; experiment: MTT antiproliferative assay, KB-V1Vbl (with or without verapamil); format: cell-based, human; conditions: for IC50: Homo sapiens, KB-V1/Vbl, MTT, 72 h, without verapamil, read-out: IC50 KB-V1^Vbl; for fold lower IC50 values combined with verapamil: KB-V1^Vbl cells, verapamil 1 µM vs none; for P-gp substrate / dependence on P-gp: inferred from KB-V1^Vbl cells with and without verapamil
Text: as §1

[8] = tested on: HDFa adult human dermal fibroblasts; experiment: MTT cytotoxicity assay, non-malignant HDFa; format: cell-based; conditions: 72 h, non-malignant cells
Text: as §1

zebrafish larvae = experiment: Zebrafish angiogenesis assay (SIV area); format: in vivo; conditions: zebrafish larvae 24 hpf, 48 h treatment, 50-1000 nM
Experimental: Transgenic zebrafish (Tg(fli1:EGFP, casper mutant) were bred at 28 °C.[16] After fertilization, the eggs were transferred to E3-medium (5 mm NaCl, 0.17 mm KCl, 0.33 mm CaCl, 0.33 mm MgSO4, 0.01% methylene blue, pH 7.2), followed by incubation for 24 h. The chorion was manually removed, and the larvae were treated with test compounds or solvent in six-well plates (30 fish per concentration, 5 mL/well) for 48 h. The fluorescent vasculature was documented with a Leica MZ10F and Zeiss AxioCam MRrc. To quantify the angiogenesis, the sub-intestinal vein (SIV) area was measured using ImageJ and expressed as means ± SD with the control set to 100%. The significance of SIV reduction through substance treatment was assessed using one-way analysis of variance (ANOVA), *P < 0.05; **P < 0.01; ***P < 0.001; ****P < 0.0001, with Dunnett´s multiple comparison test (GraphPad Prism 9).

[9] = tested on: EA.hy926 endothelial hybrid cells; experiment: MTT antiproliferative assay, EA.hy926; format: cell-based; conditions: Homo sapiens, EA.hy 926, 72 h
Text: as §1

[10] = tested on: HT-29 colon carcinoma cells; experiment: MTT antiproliferative assay, HT-29; format: cell-based; conditions: Homo sapiens, 72 h
Text: as §1

518A2 melanoma cells [11] = experiment: Cell-cycle analysis (FACS, propidium iodide); format: cell-based, human; conditions: 518A2 cells, 25 nM, 24 h
Experimental: 518A2 melanoma cells (10 × 10^4 cells/mL, 3 mL/well) were cultivated in six-well plates for 24 h. After the treatment with test compounds (10 and 25 nm), C-A4 (10 and 25 nm), or DMSO (vehicle) for an additional 24 h, the cells were trypsinized, centrifuged (300 × g, 5 min, 4 °C), and fixed in 70% EtOH for min. 24 h. For FACS measurement, cells were washed in PBS and stained with propidium iodide solution (50 µg/mL PI, 50 µg/mL RNase A in 0.1% sodium citrate) for 30 min at 37 °C. The DNA content of at least 10000 single cells was determined using a Beckmann Coulter Cytomics FC500 flow cytometer (λex = 488 nm, λem = 570 nm). CXP software (Beckman Coulter) was used to analyze the cells in the cell cycle phases (sub-G1, G1, S, G2/M).

[12] = Homo sapiens, read-out: Average IC50 value of the tested cancer and hybrid cell lines (Ø IC50), average of all cell lines of Table 2

T1 sequence (P10242 whole entry K503R/K527R): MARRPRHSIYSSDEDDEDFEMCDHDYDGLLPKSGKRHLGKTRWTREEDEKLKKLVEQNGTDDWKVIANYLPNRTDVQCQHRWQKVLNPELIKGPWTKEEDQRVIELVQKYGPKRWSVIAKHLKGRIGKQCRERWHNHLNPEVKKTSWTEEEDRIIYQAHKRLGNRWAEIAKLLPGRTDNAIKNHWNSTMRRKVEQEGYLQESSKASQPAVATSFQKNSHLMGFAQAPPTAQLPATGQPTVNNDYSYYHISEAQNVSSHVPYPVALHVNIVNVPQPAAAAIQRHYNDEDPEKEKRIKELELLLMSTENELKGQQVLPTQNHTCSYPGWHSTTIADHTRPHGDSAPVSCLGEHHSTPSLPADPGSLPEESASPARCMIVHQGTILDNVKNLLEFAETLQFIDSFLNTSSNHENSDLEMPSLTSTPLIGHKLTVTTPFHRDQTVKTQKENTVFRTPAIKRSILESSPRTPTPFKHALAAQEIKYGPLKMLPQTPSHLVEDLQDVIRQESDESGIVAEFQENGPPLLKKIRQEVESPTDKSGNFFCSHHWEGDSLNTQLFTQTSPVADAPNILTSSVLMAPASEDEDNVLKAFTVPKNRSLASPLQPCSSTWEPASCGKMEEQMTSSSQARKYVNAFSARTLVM

SMILES	IC50 [1]	IC50 (518A2 melanoma cells [2])	IC50 (MYB)	IC50 [3]	IC50 [4, 12]	IC50 (U-87 glioblastoma cells)	IC50 [5]	IC50 [6]	IC50 [7]	fold lower IC50 values combined with verapamil [7]	IC50 [10]	IC50 ([4]; read-out: Average IC50 value of the tested cancer and hybrid cell lines (Ø IC50), average of all cell lines of Table 2)	IC50 [8]	effect on SIV growth (angiogenesis) (zebrafish larvae)	IC50 [9]	G2/M cell-cycle arrest (in words) (518A2 melanoma cells [11])	P-gp substrate / dependence on P-gp [7]
COc1ccc2c(c1)OC(N)=C(C#N)C2c1cc(Br)c(OC)c(OC)c1 (stereo not shown) [2B]	100 ± 8 nM	6 ± 0.2 nM	1.28 ± 0.3 nM	30 ± 3 nM	49 nM	80 ± 5 nM	2 ± 0.2 nM	100 ± 10 nM	10 ± 1 nM	14 fold	200 ± 20 nM	–	> 50000 nM	no SIV decrease	0.8 ± 0.09 nM	–	–
COc1ccc2c(c1)OC(N)=C(C#N)C2c1cc(I)c(OC)c(OC)c1 (stereo not shown) [2C, 2-Amino-3-cyano-4-(3’-iodo-4’, 5’-dimethoxyphenyl)-7-methoxy-4H-chromene]	20 ± 1 nM	20 ± 2 nM	1.56 ± 0.2 nM	6 ± 0.7 nM	47 nM	25 ± 2 nM	10 ± 0.9 nM	70 ± 1 nM	60 ± 5 nM	20 fold	200 ± 20 nM	–	> 50000 nM	no SIV decrease	60 ± 5 nM	–	–
COc1ccc2c(c1)OC(N)=C(C#N)C2c1cc(Cl)c(OC)c(Cl)c1 (stereo not shown) [2D, 2-Amino-3-cyano-4-(3’, 5’-dichloro-4’-methoxyphenyl)-7-methoxy-4H-chromene]	2400 ± 300 nM	2100 ± 200 nM	–	1900 ± 200 nM	> 500 nM	3900 ± 400 nM	700 ± 50 nM	2500 ± 200 nM	2100 ± 100 nM	–	1400 ± 100 nM	–	–	–	1100 ± 70 nM	only a slight increase in G2/M phase cells	–
COc1ccc2c(c1)OC(N)=C(C#N)C2c1ccccc1F (stereo not shown) [2G, 2-Amino-3-cyano-4-(2’-fluorophenyl)-7-methoxy-4H-chromene]	500 ± 40 nM	700 ± 40 nM	–	300 ± 40 nM	> 500 nM	3200 ± 100 nM	400 ± 60 nM	200 ± 20 nM	700 ± 20 nM	–	200 ± 10 nM	–	–	–	900 ± 90 nM	–	–
COc1ccc2c(c1)OC(N)=C(C#N)C2c1ccc(F)c(F)c1 (stereo not shown) [2I, 2-Amino-3-cyano-4-(3’, 4’-difluorophenyl)-7-methoxy-4H-chromene]	700 ± 100 nM	700 ± 5 nM	–	600 ± 6 nM	–	3600 ± 500 nM	600 ± 30 nM	800 ± 6 nM	700 ± 30 nM	12 fold	800 ± 30 nM	–	–	–	700 ± 10 nM	–	–
COc1ccc2c(c1)OC(N)=C(C#N)C2c1ccc(F)c(Cl)c1 (stereo not shown) [2J, 2-Amino-3-cyano-4-(3’-chloro-4’-fluorophenyl)-7-methoxy-4H-chromene]	150 ± 20 nM	400 ± 10 nM	–	400 ± 40 nM	396 nM	1200 ± 70 nM	100 ± 6 nM	300 ± 30 nM	300 ± 20 nM	–	500 ± 50 nM	> 500 nM	–	–	400 ± 20 nM	–	substrate of P-gp
COc1ccc2c(c1)OC(N)=C(C#N)C2c1ccc(Cl)c(Cl)c1 (stereo not shown) [2K, 2-Amino-3-cyano-4-(3’, 4’-dichlorophenyl)-7-methoxy-4H-chromene]	1000 ± 50 nM	600 ± 7 nM	–	800 ± 20 nM	> 500 nM	8500 ± 300 nM	800 ± 70 nM	300 ± 10 nM	1300 ± 100 nM	–	1900 ± 100 nM	–	–	–	600 ± 80 nM	–	–
COc1ccc2c(c1)OC(N)=C(C#N)C2c1ccc(F)cc1F (stereo not shown) [2L, 2-Amino-3-cyano-4-(2’, 4’-difluorophenyl)-7-methoxy-4H-chromene]	> 50000 nM	500 ± 30 nM	–	1600 ± 160 nM	> 500 nM	5100 ± 500 nM	1500 ± 70 nM	2500 ± 40 nM	3800 ± 400 nM	–	500 ± 50 nM	–	–	–	200 ± 10 nM	–	–

Continued, in another order:

IC50 [1]	IC50 (518A2 melanoma cells [2])	IC50 (MYB)	IC50 [3]	IC50 [4, 12]	IC50 (U-87 glioblastoma cells)	IC50 [5]	IC50 [6]	IC50 [7]	fold lower IC50 values combined with verapamil [7]	IC50 [10]	IC50 ([4]; read-out: Average IC50 value of the tested cancer and hybrid cell lines (Ø IC50), average of all cell lines of Table 2)	SMILES	IC50 [8]	effect on SIV growth (angiogenesis) (zebrafish larvae)	IC50 [9]	G2/M cell-cycle arrest (in words) (518A2 melanoma cells [11])	P-gp substrate / dependence on P-gp [7]
200 ± 30 nM	300 ± 10 nM	–	200 ± 8 nM	330 nM	400 ± 60 nM	90 ± 2 nM	500 ± 50 nM	900 ± 90 nM	–	200 ± 20 nM	–	COc1ccc2c(c1)OC(N)=C(C#N)C2c1cccc(F)c1F (stereo not shown) [2M, 2-Amino-3-cyano-4-(2’, 3’-difluorophenyl)-7-methoxy-4H-chromene]	–	–	400 ± 10 nM	–	P-gp substrates
300 ± 7 nM	90 ± 60 nM	–	200 ± 10 nM	> 500 nM	500 ± 100 nM	200 ± 20 nM	500 ± 50 nM	700 ± 70 nM	–	400 ± 30 nM	–	COc1ccc2c(c1)OC(N)=C(C#N)C2c1cc(F)ccc1F (stereo not shown) [2N, 2-Amino-3-cyano-4-(2’, 5’-difluorophenyl)-7-methoxy-4H-chromene]	–	–	4700 ± 900 nM	–	P-gp substrates
400 ± 60 nM	60 ± 6 nM	–	40 ± 3 nM	203 nM	100 ± 10 nM	40 ± 4 nM	1400 ± 50 nM	20 ± 2 nM	–	70 ± 8 nM	–	COc1ccc2c(c1)OC(N)=C(C#N)C2c1cc(F)cc(F)c1 (stereo not shown) [2O]	–	–	40 ± 1 nM	–	no dependence on P-gp
400 ± 50 nM	300 ± 30 nM	–	300 ± 20 nM	330 nM	1100 ± 90 nM	100 ± 20 nM	300 ± 20 nM	–	–	200 ± 5 nM	–	COc1ccc2c(c1)OC(N)=C(C#N)C2c1cc(F)c(F)c(F)c1 (stereo not shown) [2P, 2-Amino-3-cyano-4-(3’, 4’, 5’-trifluorophenyl)-7-methoxy-4H-chromene]	–	–	400 ± 40 nM	–	no dependence on P-gp
800 ± 30 nM	300 ± 10 nM	–	2900 ± 10 nM	> 500 nM	900 ± 60 nM	400 ± 4 nM	700 ± 40 nM	1900 ± 100 nM	–	400 ± 30 nM	–	COc1ccc2c(c1)OC(N)=C(C#N)C2c1cccc(S(F)(F)(F)(F)F)c1 (stereo not shown) [2Q, 2-Amino-3-cyano-4-(3’-pentafluorothiophenyl)-7-methoxy-4H-chromene]	–	–	600 ± 20 nM	–	–
10 ± 0.8 nM	30 ± 2 nM	–	200 ± 20 nM	227 nM	900 ± 50 nM	300 ± 20 nM	300 ± 30 nM	30 ± 0.4 nM	–	200 ± 20 nM	–	COc1ccc2c(c1)OC(N)=C(C#N)C2c1cccc([N+](=O)[O-])c1 (stereo not shown) [2R]	–	–	300 ± 9 nM	–	–
